Results on 3 molecules are retold here after US8628961B2, “Small molecule antagonists of phosphatidylinositol-3,4,5-triphosphate (PIP3) and uses thereof” (Tufts University, priority 2010, dated 2014).

The target in test [1] is T1, Akt PH domain (Homo sapiens (Human), UniProt P31749). Kind of test: Fluorescence polarization (FP) PIP3/Akt PH domain binding assay. The settings on record: for IC50: 15 nM TMR-conjugated PIP3, PITs 6.25-200 μM, 30 min; for activity of PIT-1 analogs in vitro: negative controls. An excerpt:
(§1) In order to identify compounds that disrupt the interaction between PIP3 and PH domains, a high-throughput fluorescence polarization (FP)-binding assay was developed using recombinant 1-123 amino acid N-terminal fragment of human Akt1 (also referred to herein simply as Akt), encompassing the PH domain (PH123 protein), and fluorescent […] PIP3 molecule. The amino acid sequence of human Akt1 is publicly available as, for example, GenBank Accession No. NP_001014432.1 (SEQ ID NO:1), and the corresponding DNA sequence is publicly available as, for example, GenBank Accession No. NM_001014432. Briefly, 5 μM recombinant GST fusion proteins containing 1-123 a.a. N-terminal fragment of human Akt1 (PH 123) or 100 nM 441-551 a.a. region of human PDK1 were incubated with 15 nM TMR-labeled PIP3, PIP2, or PIP5 in buffer containing 50 mM Tris-HCl (pH 7.5), 150 mM NaCl, and 5 mM b-ME for 15 min at room temperature in the dark. FP values were determined using Wallac Victor 3 plate reader. For the primary screen, 50,000 diverse small molecules from Harvard Institute of Chemistry and Cell Biology were screened (iccb.med.harvard.edu). Incubations were carried out for 1 hr. For secondary assays, PIT compounds were added at various concentrations (6.25, 12.5, 25, 50, 100, 150 and 200 μM), followed by a 30 min incubation. The inhibition rates were calculated as inhibition rate=[1−(compound-treated group/control group)]×100%, and IC50 value was determined using Origin6 software (MicroCal, LLC, Northampton, Mass.).
Target sequence in this assay (P31749 1-123): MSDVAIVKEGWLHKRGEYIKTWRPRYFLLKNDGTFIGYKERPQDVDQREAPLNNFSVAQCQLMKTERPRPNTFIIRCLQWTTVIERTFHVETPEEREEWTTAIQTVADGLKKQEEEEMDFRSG
(Fluorescence polarisation rises when a labelled molecule tumbles more slowly, as on binding a larger partner.)

The next test concerns PI3K-PDK1-Akt pathway. Kind of test: PIP3-regulated phosphorylation events in U87MG cells. It is filed as cell-based, human. On the procedure:
The effect of PIT-1 on PIP3-mediated signaling was examined in U87MG glioblastoma cells, which show elevated basal levels of PIP3 due to the loss of PTEN. Pore N et al. (2003) Cancer Res 63:236-41.

Another test has as its system SUM159 cells. The experiment in a line: Cell polarization in wounded monolayers after PDGF. It is filed as cell-based, human. The settings on record: wound healing model, 100 μM. On the procedure: In order to measure cell polarization, wounds were generated in SUM159 cell monolayers, followed by serum starvation and treatment with 100 μM PIT-1, PIT-2, PIT-1i-1, or PIT-1i-2 for 2 hr. Cells were stimulated for 15 min with 100 ng/ml PDGF, fixed and stained with TRITC-phalloidin for F-actin (red), acetylated tubulin antibody (green) for microtubule organization center (MTOC), and Hoechst for nuclei (blue). Cell polarization was evaluated by analysis of the relative location of the MTOC and nucleus. […] The number of polarized cells was counted in five random fields under fluorescent microscope.

In a further test the target is PDK1 PH domain (Homo sapiens (Human), UniProt O15530). The experiment in a line: FP PIP3/PDK1 PH domain binding assay. The settings on record: for IC50: 15 nM TMR-conjugated PIP3, 100 nM PDK1 PH domain, 30 min.
Description: as §1

Test [2] has as its target T1, Akt PH domain. Kind of test: PH domain translocation assay (GFP fusion, plasma membrane). It is filed as cell-based. The settings on record: PDGF stimulation. On the procedure: Cells were transfected with the corresponding GFP-fusion vectors, serum starved overnight, and incubated with 100 μM PITs or PIT-1 is for 2 hr, followed by stimulation with 100 ng/ml PDGF or 250 ng/ml PMA for 5 min. The translocation was analyzed using fluorescent microscope and was quantitated by counting the number of cells with translocated PH domains in five random fields.
To begin characterizing cellular activity of PITs, a PH domain translocation assay was performed, measuring PIP3-induced association of GFP-fused PH domains with the plasma membrane. […] Varnai P et al. (1999) J Biol Chem 274:10983-9. Several PH-domain-containing proteins, which are known to bind PIP3 specifically and efficiently, were examined. […] Oikawa T et al. (2004) Nat Cell Biol 6:420-6.
Target sequence in this assay (P31749 5-108): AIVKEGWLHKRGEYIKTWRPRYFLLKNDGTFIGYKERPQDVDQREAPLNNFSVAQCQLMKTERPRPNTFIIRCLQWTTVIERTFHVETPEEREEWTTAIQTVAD

The subject of test [3] is SUM159 cells transfected with VAV2 or WAVE2. The experiment in a line: Wound migration of VAV- or WAVE-overexpressing cells. It is filed as cell-based, human. The settings on record: PDGF, 8 hr. On the procedure: SUM159 cells were transfected with VAV2 or WAVE2. Scratch wound was generated in cell monolayer, followed by treatment with PIT-1 (100 μM) in the presence of PDGF (100 ng/ml) stimulation for 8 hr. The inhibitory effect of PITs on VAV- or WAVE-induced cell migration was calculated according to the width of wound. The width of wounded cell monolayers was measured in five random fields.

Test [4] has as its system multiple cancer cell lines. The experiment in a line: Cancer cell viability, MTS or ATP assays. Format: cell-based. The settings on record: dose- and time-dependent. On the procedure: (§2) Based on the critical role of PIP3-dependent […] signaling in the regulation of cell survival, the effect of PIT-1 on the cancer cell viability was tested. Cancer cells were seeded into 96-well plates (white plates for ATP assay; black plates for fluorescent assay; clear plates for MTS assay) at the density of 5-10×10^3 cells per well in 100 μl of the appropriate media. Compounds were added at a series of concentrations and incubated for different times. For the ATP assay, a luminescence-based commercial kit (CellTiter-Glo, Promega, Madison, Wis.) was used. Thirty microliters of cell lysis/ATP detection reagent was added to each well, mixed for 10 min at room temperature, and the luminescence was measured using a Wallac Victor 3 plate reader (Perkin-Elmer, Wellesley, Mass.). For the MTS assay, a CellTiter 96 AQueous Non-Radioactive Cell Proliferation Assay Kit (Promega, Madison, Wis., USA) was used. Twenty microliters of the combined MTS/PMS solution was added into each well, incubated for 4 hr at 37° C., and the absorbance at 490 nm was measured using a Wallac Victor 3 plate reader. For the Sytox cell death assay, measuring loss of plasma membrane integrity, cells were incubated with 1 μM Sytox Green reagent (Molecular Probes, Eugene, Oreg.) for 30 min at 37° C. and the fluorescence intensity was measured using Wallac Victor 3 plate reader with excitation at 485 nm and emission at 545 nm. Next, 5 μl of 20% (v/v) Triton X-100 solution was added to each well and incubated for 1 hr at 37° C., and the signal was measured again. The ratio of values (percentage of dead cells in each well) before and after Triton X-100 treatment was calculated and normalized to the relevant controls not subjected to the cytotoxic stimuli. IC50 values were determined using Origin6 software (MicroCal, LLC, Northampton, Mass.).
A general note: Formazan colour is commonly taken as a measure of viable cells.

For another test, the system named is U87MG cells. The experiment in a line: cells. It is filed as cell-based. Conditions: for IC50: U87MG cells, 48 hr, ATP assay, read-out: Cell Viability IC50. On the procedure: as §2
To measure induction of cell death by PIT-1 derivatives, U87MG cells were incubated with PITs (1.56-300 μM) for 48 hr. Cell viability was determined using ATP assay.

Where two headings read alike, the source gives them in different places. Some results are limits rather than exact numbers.

PDK1 PH domain, sequence (O15530 441-551): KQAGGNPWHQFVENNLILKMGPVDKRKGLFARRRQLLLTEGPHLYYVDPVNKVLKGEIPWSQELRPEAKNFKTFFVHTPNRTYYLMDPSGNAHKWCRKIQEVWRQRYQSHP

`O=C(NC(=S)Nc1cc([N+](=O)[O-])cc(Cl)c1O)c1ccccc1` [PIT-1]: the IC50 (in general, the point on the concentration scale where inhibition reaches its midpoint) on Akt PH domain [1] came out at 31 ± 2.5 µM; on PDK1 PH domain it was 66.7 ± 3.5 µM; in the test with U87MG cells (Homo sapiens, U-87 MG), 39.9 ± 3.2 µM. Also, in the test with PI3K-PDK1-Akt pathway, the “PI3K-PDK1-Akt signaling in U87MG cells” value is “suppressed activity of the PI3K-PDK1-Akt pathway”. In the test with SUM159 cells, the “cell polarization and lamellipodia formation induced by PDGF” value is “effective at preventing cell polarization and lamellipodia formation”. In addition, at PDK1 PH domain (FIG. 4), the “inhibition of binding of PIP3 to the PH domain of PDK1” value was “inhibited binding of PIP3 to the PH domain of PDK1”. Moreover, on Akt PH domain [2], the “plasma membrane translocation of Akt PH domain” value (from here on “plasma membrane translocation”) is recorded as “significantly inhibited the translocation”. Also, in test [3], the “inhibition of migration in VAV- and WAVE-overexpressing cells compared to control cells” value (“inhibition … compared to control cells” below) is “larger degree of inhibition of cell migration”. The “viability of multiple cancer cell lines” value in test [4] is listed as “reduced viability of multiple cancer cell lines”. Further, the “killing of U87MG cells compared with LY294002” value in the test on U87MG cells was “more pronounced than that by the PI3K inhibitor LY294002”.
In the case of `COc1c(Cl)cc([N+](=O)[O-])cc1NC(=S)NC(=O)c1ccccc1` [PIT-1i-2], the half-inhibitory concentration (IC50) at Akt PH domain [1], on PDK1 PH domain and in the test with U87MG cells was greater than 200 µM in each case. The “activity of PIT-1 analogs in vitro” value at Akt PH domain [1] is “inactive analogs”. Moreover, in the test on PI3K-PDK1-Akt pathway, the “PI3K-PDK1-Akt signaling in U87MG cells” value is “failed to inhibit PDK1/Akt signaling”. The “cell polarization and lamellipodia formation induced by PDGF” value in the test on SUM159 cells is “failed to prevent cell polarization”. Also, the “plasma membrane translocation” value on Akt PH domain [2] was “inactive”. The “inhibition … compared to control cells” value in test [3] was “lacked activity”. Besides, the “viability of multiple cancer cell lines” value in test [4] is “did not induce loss of viability”.
In the case of `O=C(NC(=O)c1ccccc1)Nc1cc([N+](=O)[O-])cc(Cl)c1O` [PIT-1i-1, reference compound], the IC50 on Akt PH domain [1], at PDK1 PH domain and in the test with U87MG cells was greater than 200 µM in each case. Further, the “activity of PIT-1 analogs in vitro” value on Akt PH domain [1] was “inactive analogs”. In addition, in the test on PI3K-PDK1-Akt pathway, the “PI3K-PDK1-Akt signaling in U87MG cells” value is on record as “failed to inhibit PDK1/Akt signaling”. In addition, the “cell polarization and lamellipodia formation induced by PDGF” value in the test with SUM159 cells is “failed to prevent cell polarization”. Also, the “plasma membrane translocation” value on Akt PH domain [2] was “inactive”. The “inhibition … compared to control cells” value in test [3] is listed as “lacked activity”. The “viability of multiple cancer cell lines” value in test [4] is “did not induce loss of viability”.
